In patent US10759783B2, “Biaryl inhibitors of Bruton'S tyrosine kinase” (BIOGEN MA INC., priority 2013, dated 2020) one finds IC50 data, which are given here for 18 molecules.

Each structure is given as a SMILES string.

Assay [1] deals with BTK (phospho-BTK) in human whole blood (Homo sapiens, UniProt Q06187). Briefly: In vitro PD assay in human whole blood (pBTK assay).
A further assay addresses T1, BTK enzyme (Homo sapiens, UniProt Q06187).
T1 construct: purchased Upstate 14-552
Description: In vitro BTK kinase assay: BTK-POLYGAT-LS assay. The format is biochemical. The note with it: ATP 10 μM, read-out: IC50 (10uMATP). Summed up: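 Human BTK activity was measured with final 10 μM ATP and 100 nM polyGAT substrate in pH 7.5 Tris buffer with 10 mM MgCl2, DTT, Triton X-100 and casein.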

BTK (phospho-BTK) in human whole blood, sequence (Q06187 whole entry): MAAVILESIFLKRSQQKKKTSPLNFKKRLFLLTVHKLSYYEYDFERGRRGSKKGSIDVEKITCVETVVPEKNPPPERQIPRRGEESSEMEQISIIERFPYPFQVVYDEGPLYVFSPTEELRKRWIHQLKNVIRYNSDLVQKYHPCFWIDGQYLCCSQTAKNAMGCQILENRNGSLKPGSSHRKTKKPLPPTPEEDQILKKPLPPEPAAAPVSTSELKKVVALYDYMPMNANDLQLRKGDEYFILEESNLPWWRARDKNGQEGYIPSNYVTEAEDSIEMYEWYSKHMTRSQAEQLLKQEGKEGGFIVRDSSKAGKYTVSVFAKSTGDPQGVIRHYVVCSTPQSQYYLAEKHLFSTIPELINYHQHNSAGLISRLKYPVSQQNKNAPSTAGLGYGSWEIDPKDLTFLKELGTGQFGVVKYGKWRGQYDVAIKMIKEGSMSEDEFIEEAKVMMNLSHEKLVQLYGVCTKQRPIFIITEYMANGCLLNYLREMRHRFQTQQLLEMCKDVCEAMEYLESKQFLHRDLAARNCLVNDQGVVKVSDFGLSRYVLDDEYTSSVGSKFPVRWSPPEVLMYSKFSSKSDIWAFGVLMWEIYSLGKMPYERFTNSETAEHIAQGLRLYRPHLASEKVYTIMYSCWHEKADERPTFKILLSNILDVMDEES
T1 sequence (Q06187 whole entry): as above

Turning to `Cc1cc(-c2ccnc(Nc3cc4n(n3)CCNC4)n2)ccc1CNC(=O)c1cnc(C(C)(C)C)s1` [Example I-54, 2-(tert-butyl)-N-(2-methyl-4-(2-((4,5,6,7-tetrahydropyrazolo[1,5-a]pyrazin-2-yl)amino)pyrimidin-4-yl)benzyl)thiazole-5-carboxamide], the IC50 in assay [1] was 500 to 1500 nM; on BTK enzyme, under 10 nM.
As for `Cc1cc(-c2ccnc(Nc3cn(C)nc3C)n2)ccc1CNC(=O)c1cnc(C(C)(C)C)s1` [Example I-51, 2-(tert-butyl)-N-(4-(2-((1,3-dimethyl-1H-pyrazol-4-yl)amino)pyrimidin-4-yl)-2-methylbenzyl)thiazole-5-carboxamide], the IC50 was 500 to 1500 nM in assay [1] and under 10 nM on BTK enzyme.
Turning to `Cc1cc(-c2ccnc(Nc3cnn(C4CCOCC4)c3)n2)ccc1CNC(=O)c1cnc(C(C)(C)C)s1` [Example I-38, 2-(tert-butyl)-N-(2-methyl-4-(2-((1-(tetrahydro-2H-pyran-4-yl)-1H-pyrazol-4-yl)amino)pyrimidin-4-yl)benzyl)thiazole-5-carboxamide], the half-inhibitory concentration (IC50) is 500 to 1500 nM in assay [1] and under 10 nM on BTK enzyme.
With `Cc1cc(-c2ccnc(Nc3ccc(N4CCN(C)CC4)cn3)c2)ccc1CNC(=O)c1cnc(C(C)(C)C)s1` [Example I-70, 2-(tert-butyl)-N-(2-methyl-4-(2-((5-(4-methylpiperazin-1-yl)pyridin-2-yl)amino)pyridin-4-yl)benzyl)thiazole-5-carboxamide], the IC50 is under 500 nM in assay [1] and under 10 nM at BTK enzyme.
As to `CCn1cc(Nc2nccc(-c3ccc(CNC(=O)c4cnc(C(C)(C)C)s4)c(C)c3)n2)cn1` [Example I-40, 2-(tert-butyl)-N-(4-(2-((1-ethyl-1H-pyrazol-4-yl)amino)pyrimidin-4-yl)-2-methylbenzyl)thiazole-5-carboxamide], the half-inhibitory concentration (IC50) is under 500 nM in assay [1] and under 10 nM on BTK enzyme.
On the same counts, the results for `Cc1cc(-c2cc(Nc3cc4n(n3)CCN(C)C4)ncn2)ccc1CNC(=O)c1cc(C(C)(C)C)on1` [Example I-265, 5-tert-butyl-N-[[2-methyl-4-[6-[(5-methyl-6,7-dihydro-4H-pyrazolo[1,5-a]pyrazin-2-yl)amino]pyrimidin-4-yl]phenyl]methyl]isoxazole-3-carboxamide] are under 500 nM and under 10 nM.
On the same counts, the results for `Cc1cc(-c2ccnc(Nc3cnn(C)c3)n2)ccc1CNC(=O)c1ccc(C(C)(C)C)cc1` [Example I-7, 4-(tert-butyl)-N-(2-methyl-4-(2-((1-methyl-1H-pyrazol-4-yl)amino)pyrimidin-4-yl)benzyl)benzamide] are 500 to 1500 nM and under 10 nM.
On the same counts, the results for `Cc1cc(-c2cc(Nc3cc4n(n3)CCOC4)ncn2)ccc1CNC(=O)N1CC(OC(C)C)C1` [Example I-277, N-[[4-[6-(6,7-dihydro-4H-pyrazolo[5,1-c][1,4]oxazin-2-ylamino)pyrimidin-4-yl]-2-methyl-phenyl]methyl]-3-isopropoxy-azetidine-1-carboxamide] are under 500 nM and under 10 nM.
`Cc1cc(-c2ccnc(Nc3cnn(C[C@@H]4CNCCO4)c3)n2)ccc1CNC(=O)c1cnc(C(C)(C)C)s1` [Example I-126, (S)-2-(tert-butyl)-N-(2-methyl-4-(2-((1-(morpholin-2-ylmethyl)-1H-pyrazol-4-yl)amino)pyrimidin-4-yl)benzyl)thiazole-5-carboxamide]: the values for the concentration for half-maximal inhibition (IC50) (in assay [1]; at BTK enzyme) were under 500 nM and under 10 nM, respectively.
`Cc1cc(-c2cc(Nc3cc4n(n3)CCN(CCO)C4)ncn2)ccc1CNC(=O)c1cnn(C(C)(C)C)c1` [Example I-233, 1-(tert-butyl)-N-(4-(6-((5-(2-hydroxyethyl)-4,5,6,7-tetrahydropyrazolo[1,5-a]pyrazin-2-yl)amino)pyrimidin-4-yl)-2-methylbenzyl)-1H-pyrazole-4-carboxamide]: the results for the 50% inhibitory concentration (IC50) (in assay [1]; at BTK enzyme) were under 500 nM and under 10 nM, respectively.
On the same counts, the results for `Cc1cc(-c2ccnc(Nc3cnn(C)c3)n2)ccc1CNC(=O)c1cc2c(s1)CCOC2` [Example I-3, N-(2-methyl-4-(2-((1-methyl-1H-pyrazol-4-yl)amino)pyrimidin-4-yl)benzyl)-6,7-dihydro-4H-thieno[3,2-c]pyran-2-carboxamide] are 1500 to 10000 nM and under 10 nM.
On the same counts, the results for `Cc1cc(-c2ccnc(Nc3cnn(C)c3)n2)ccc1CN1CCc2c(cnn2C(C)(C)C)C1=O` [Example I-192, 1-(tert-butyl)-5-(2-methyl-4-(2-((1-methyl-1H-pyrazol-4-yl)amino)pyrimidin-4-yl)benzyl)-6,7-dihydro-1H-pyrazolo[4,3-c]pyridin-4(5H)-one] are under 500 nM and under 10 nM.
Consider `Cc1cc(-c2ccnc(Nc3cnn([C@@H]4CCN(C)C4)c3)n2)ccc1CNC(=O)c1cnc(C(C)(C)C)s1` [Example I-123, (R)-2-(tert-butyl)-N-(2-methyl-4-(2-((1-(1-methylpyrrolidin-3-yl)-1H-pyrazol-4-yl)amino)pyrimidin-4-yl)benzyl)thiazole-5-carboxamide], for which the IC50 was under 500 nM in assay [1] and under 10 nM on BTK enzyme.
As to `Cn1cc(Nc2nccc(-c3ccc4c(c3)CCCC4NC(=O)c3cc4c(s3)CCOC4)n2)cn1` (stereo not drawn) [Example I-95, N-(6-(2-((1-methyl-1H-pyrazol-4-yl)amino)pyrimidin-4-yl)-1,2,3,4-tetrahydronaphthalen-1-yl)-6,7-dihydro-4H-thieno[3,2-c]pyran-2-carboxamide], the results for the IC50 (in assay [1]; on BTK enzyme) were 500 to 1500 nM and under 10 nM, respectively.
Turning to `Cc1cc(-c2cc(Nc3cc4c(cn3)CNCC4)ncn2)ccc1CNC(=O)c1cnc(C(C)(C)C)s1` [Example I-267, 2-tert-butyl-N-[[2-methyl-4-[6-(5,6,7,8-tetrahydro-2,7-naphthyridin-3-ylamino)pyrimidin-4-yl]phenyl]methyl]thiazole-5-carboxamide], the IC50 was under 500 nM in assay [1] and under 10 nM on BTK enzyme.
Take `Cc1cc(-c2ccnc(Nc3cnn([C@H]4CCNC4)c3)n2)ccc1CNC(=O)c1cnc(C(C)(C)C)s1` [Example I-124, (S)-2-(tert-butyl)-N-(2-methyl-4-(2-((1-(pyrrolidin-3-yl)-1H-pyrazol-4-yl)amino)pyrimidin-4-yl)benzyl)thiazole-5-carboxamide]: the values for the IC50 (in assay [1]; at BTK enzyme) were under 500 nM and under 10 nM, respectively.
For `CN1CCn2nc(Nc3cc(-c4ccc(CNC(=O)c5cnn(C(C)(C)C)c5)c(C(F)(F)F)c4)ncn3)cc2C1` [Example I-241, 1-(tert-butyl)-N-(4-(6-((5-methyl-4,5,6,7-tetrahydropyrazolo[1,5-a]pyrazin-2-yl)amino)pyrimidin-4-yl)-2-(trifluoromethyl)benzyl)-1H-pyrazole-4-carboxamide], the concentration for half-maximal inhibition (IC50) in assay [1] is under 500 nM; at BTK enzyme it was under 10 nM.
Take `Cc1cc(-c2ccnc(Nc3cnn(C)c3)n2)ccc1CNC(=O)c1cc2c(s1)CCCC2` [Example I-5, N-(2-methyl-4-(2-((1-methyl-1H-pyrazol-4-yl)amino)pyrimidin-4-yl)benzyl)-4,5,6,7-tetrahydrobenzo[b]thiophene-2-carboxamide]: the IC50 in assay [1] is 500 to 1500 nM; at BTK enzyme, under 10 nM.
